# Laboratory results: patent publication US5422352A, “Slimming pharmaceutical composition” (Nycomed Dak A/S, priority 1989, dated 1995)
# Test: thermogenic effect: energy expenditure in healthy volunteers by indirect calorimetry (Example 2)
# Assay type: in vivo, human
# Details: for Mean energy expenditure during 3 hours: oral single dose, not placebo-corrected; for Energy expenditure greater than placebo: mean±SE, minimum figure; for thermogenic effect (in words): human, in vivo
# Experimental: The study was conducted in two parts. The first part was designed as a placebo-controlled, double-blind trial on the effect of 3 different doses of caffeine, 3 different doses of ephedrine and 2 placebo samples. The order of the tests were not entirely randomized, but organized in a sequence that allowed testing for a carry-over effect.
# 6 healthy volunteers of normal weight (3 of each sex) aged between 20 and 32 were included after informed consent was obtained. The average age of the 6 volunteers was 25 (±1) years, height, 179 (±11) cm; body weight, 70 (±13) kg; percentage of overweight, -1.7 (±8.3) % and body fat, 13 (±3) kg. The numbers in parenthesis are the standard deviation. The percentages of overweight was calculated from the individual body weight (IBW) using the midpoint of the medium frame (MMF) given in the Metropolitan Life Insurance Company tables of desirable weights (1): [formula]
# A. Treatment with ephedrine comprising capsules with 10 mg, 20 mg or 40 mg of ephedrine hydrochloride, respectively.
# B. Treatment with caffeine comprising capsules with 100 mg, 200 mg or 400 mg of caffeine, respectively. […]
# The capsules were administered orally as single doses and swallowed with 300 ml of tap water (20° C.).
# All blood samples for determination of substrate, metabolite and hormone concentrations were collected form the antecubital vein. Blood samples were taken at -30, 0, 30, 60, 90, 120, 150 and 180 minutes relative to the capsule intake (time 0). The subjects breathed through a low-resistance Scuba one-way mouthpiece. After about 10 minutes of adaptation, expiratory gas was collected in Douglas bags for 10 minute periods. Gas collection was made after each blood sampling.
# Energy expenditure was measured by indirect calorimetry. Expiratory gas was continuously analyzed for the content of oxygen and carbon dioxide with a Godart Rapox Oxygenmeter and a Beckman LB-1 Medical Gas Analyzer. Respiratory steady state was assumed to be present, when the end-expiratory carbon dioxide fraction was constant. Expiratory gas was collected in Douglas bags and analyzed for the content of oxygen and carbon dioxide with Radiometer gas-electrodes connected to an acid-base analyzer (PHM 71, Copenhagen, Denmark), and the volume of expiration gas was measured with a gas meter. […] The standard gasses were analyzed with a Scholander microtechnique with a measuring error on gas fraction being <0.0005%, i.e. the error on measurement of expired gas being within ±0.1-0.2% (19). […] A fixed protein catabolism was assumed, since the error on calculating the energy expenditure by omitting the exact correction from urinary nitrogen was negligible (20). The energy expenditure was calculated taking de novo lipogenesis into account (21).
# The responses to a test substance were estimated separately for each subject as the difference between the integrated numerical area of the response curve (by a trapezoidal approach) and the rectangular area determined by the basal values. To estimate the predictive, theoretical effect of combinations of ephedrine and caffeine, the single dose responses were added after subtracting the average placebo response. This calculation was performed separately for each subject before statistical analysis. A two-way analysis of variance for randomized blocks was performed (28) to test differences between experimental periods within the same experiment and to test differences between the responses to different stimuli (test substances). Post-hoc testing was applied to compare two means (28).
smiles,measurement,setting,value
"Cn1c(=O)c2c(ncn2C)n(C)c1=O [Caffeine, caffeine]",Energy expenditure/(placebo value),100 mg caffeine,2.5
same,Mean energy expenditure during 3 hours,100 mg caffeine,15.4 kcal/3 h
same,Energy expenditure greater than placebo,100 mg caffeine,9.2±5.7 kcal/3 h
same,Energy expenditure/(placebo value),200 mg caffeine,2.2
same,Mean energy expenditure during 3 hours,200 mg caffeine,13.4 kcal/3 h
same,Energy expenditure greater than placebo,200 mg caffeine,7.2±6.0 kcal/3 h
same,Energy expenditure/(placebo value),400 mg caffeine,6.2
same,Mean energy expenditure during 3 hours,400 mg caffeine,38.6 kcal/3 h
same,Energy expenditure greater than placebo,400 mg caffeine,32.4±8.2 kcal/3 h
same,thermogenic effect (in words),,a significant relation between caffeine dose and thermogenic response (energy expenditure)
same,thermogenic effect (in words),listed as caffeine,possess thermogenic activity
